Measurements reported in ChEMBL document CHEMBL1914329, “2D MI-DRAGON: a new predictor for protein-ligands interactions and theoretic-experimental studies of US FDA drug-target network, oxoisoaporphine inhibitors for MAO-A and human parasite proteins” (Eur J Med Chem, 2011).

Assays:
[1] = organism: Homo sapiens; test: Selectivity index, ratio of IC50 for human recombinant MAO-B to IC50 for human recombinant MAO-A
[2] = molecular target: T1, Amine oxidase [flavin-containing] B (Homo sapiens, UniProt P27338); test: biochemical; assay type: cell-based, BTI-TN-5B1-4
T1 sequence (P27338 whole entry): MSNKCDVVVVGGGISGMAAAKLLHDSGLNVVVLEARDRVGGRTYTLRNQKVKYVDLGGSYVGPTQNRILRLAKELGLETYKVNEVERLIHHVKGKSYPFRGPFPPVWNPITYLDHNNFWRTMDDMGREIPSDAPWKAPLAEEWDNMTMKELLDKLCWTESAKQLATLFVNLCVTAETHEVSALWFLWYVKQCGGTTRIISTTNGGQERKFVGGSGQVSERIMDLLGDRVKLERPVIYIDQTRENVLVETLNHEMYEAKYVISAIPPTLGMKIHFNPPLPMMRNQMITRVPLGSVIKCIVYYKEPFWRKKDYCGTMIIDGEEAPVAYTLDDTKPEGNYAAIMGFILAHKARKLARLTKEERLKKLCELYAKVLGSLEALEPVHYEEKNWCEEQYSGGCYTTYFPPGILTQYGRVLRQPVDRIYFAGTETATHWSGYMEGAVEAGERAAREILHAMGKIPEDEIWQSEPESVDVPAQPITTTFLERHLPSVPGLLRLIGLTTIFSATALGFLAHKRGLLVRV
Description: Inhibition of human recombinant MAOB expressed in baculovirus infected BTI-TN-5B1-4 insect cells assessed as hydrogen peroxide production from p-tyramine after 15 mins by amplex red assay

[3] = molecular target: T2, Amine oxidase [flavin-containing] A (Homo sapiens, UniProt P21397); test: Inhibition of human recombinant MAOA expressed in baculovirus infected BTI-TN-5B1-4 insect cells assessed as hydrogen peroxide production from p-tyramine after 15 mins by amplex red assay
T2 sequence (P21397 whole entry): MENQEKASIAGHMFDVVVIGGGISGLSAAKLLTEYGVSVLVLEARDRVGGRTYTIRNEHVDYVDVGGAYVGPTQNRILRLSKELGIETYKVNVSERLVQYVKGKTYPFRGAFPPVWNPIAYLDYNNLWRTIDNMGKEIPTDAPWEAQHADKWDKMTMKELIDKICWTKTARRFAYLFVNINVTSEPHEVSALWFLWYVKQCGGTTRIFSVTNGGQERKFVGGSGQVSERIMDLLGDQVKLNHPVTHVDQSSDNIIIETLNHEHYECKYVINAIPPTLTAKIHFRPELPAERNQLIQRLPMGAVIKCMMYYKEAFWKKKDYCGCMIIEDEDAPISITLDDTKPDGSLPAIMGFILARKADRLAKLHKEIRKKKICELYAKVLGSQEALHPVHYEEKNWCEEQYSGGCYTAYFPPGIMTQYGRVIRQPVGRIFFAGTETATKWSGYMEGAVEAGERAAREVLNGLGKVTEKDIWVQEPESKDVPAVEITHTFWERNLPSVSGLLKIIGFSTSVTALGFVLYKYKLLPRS

[4] = molecular target: T1, Amine oxidase [flavin-containing] B; test: Inhibition of human recombinant MAOB expressed in baculovirus infected BTI-TN-5B1-4 insect cells assessed as hydrogen peroxide production from p-tyramine at 1 mM after 15 mins by amplex red assay; conditions: bti-tn-5b1-4, 0.25 h, 1000 µM

| Ratio IC50 [1] | IC50 [2] [µM] | IC50 [3] [µM] | inhibition (INH) [4] | Structure (SMILES) |
| --- | --- | --- | --- | --- |
| > 139 | > 100 | 0.72 | – | O=C1c2ccccc2-c2nccc3cccc1c23 |
| > 2860 | > 100 | 0.035 | – | O=C1c2ccccc2-c2nccc3cc(O)cc1c23 |
| – | > 100 | – | – | COc1cc2c3c(nccc3c1)-c1ccccc1C2=O |

Further lines, the compound ahead of its results:

| Structure (SMILES) | Ratio IC50 [1] | IC50 [2] [µM] | IC50 [3] [µM] | inhibition (INH) [4] |
| --- | --- | --- | --- | --- |
| O=C1c2ccccc2C2=NCCc3cccc1c32 | > 3.7 | > 100 | 27.3 | – |
| O=C(NCCN1CCOCC1)c1ccc(Cl)cc1 [MOCLOBEMIDE] | – | – | – | Not Active |
| COc1cc2c3c(c1)C(=O)C1=C(CCCC1)C3=NCC2 | > 24 | > 50 | 2.12 | – |
| COc1cc2ccnc3c2c(c1O)C(=O)c1ccccc1-3 | > 81 | > 100 | 1.23 | – |
| COC1=Cc2ccnc3c2c(cc2ccccc23)C1=O | > 7690 | > 100 | 0.013 | – |
| COc1cc2c3c(c1)C(=O)c1ccccc1C3=NCC2 | > 7140 | > 100 | 0.014 | – |
| COc1cc2c3c(c1O)C(=O)c1ccccc1C3=NCC2 | > 2270 | > 100 | 0.044 | – |
| COc1cc2c3c(c1)C(O)c1ccccc1C3NCC2 (centres undefined) | > 5.1 | > 50 | 9.81 | – |
